Consider ten compounds from ChEMBL document CHEMBL2010724, “Oroxylin A analogs exhibited strong inhibitory activities against iNOS-mediated nitric oxide (NO) production” (Bioorg Med Chem Lett, 2012).

In test [1] the target is T1, Nitric oxide synthase, inducible (Mus musculus) (UniProt P29477).
T1 sequence (whole entry): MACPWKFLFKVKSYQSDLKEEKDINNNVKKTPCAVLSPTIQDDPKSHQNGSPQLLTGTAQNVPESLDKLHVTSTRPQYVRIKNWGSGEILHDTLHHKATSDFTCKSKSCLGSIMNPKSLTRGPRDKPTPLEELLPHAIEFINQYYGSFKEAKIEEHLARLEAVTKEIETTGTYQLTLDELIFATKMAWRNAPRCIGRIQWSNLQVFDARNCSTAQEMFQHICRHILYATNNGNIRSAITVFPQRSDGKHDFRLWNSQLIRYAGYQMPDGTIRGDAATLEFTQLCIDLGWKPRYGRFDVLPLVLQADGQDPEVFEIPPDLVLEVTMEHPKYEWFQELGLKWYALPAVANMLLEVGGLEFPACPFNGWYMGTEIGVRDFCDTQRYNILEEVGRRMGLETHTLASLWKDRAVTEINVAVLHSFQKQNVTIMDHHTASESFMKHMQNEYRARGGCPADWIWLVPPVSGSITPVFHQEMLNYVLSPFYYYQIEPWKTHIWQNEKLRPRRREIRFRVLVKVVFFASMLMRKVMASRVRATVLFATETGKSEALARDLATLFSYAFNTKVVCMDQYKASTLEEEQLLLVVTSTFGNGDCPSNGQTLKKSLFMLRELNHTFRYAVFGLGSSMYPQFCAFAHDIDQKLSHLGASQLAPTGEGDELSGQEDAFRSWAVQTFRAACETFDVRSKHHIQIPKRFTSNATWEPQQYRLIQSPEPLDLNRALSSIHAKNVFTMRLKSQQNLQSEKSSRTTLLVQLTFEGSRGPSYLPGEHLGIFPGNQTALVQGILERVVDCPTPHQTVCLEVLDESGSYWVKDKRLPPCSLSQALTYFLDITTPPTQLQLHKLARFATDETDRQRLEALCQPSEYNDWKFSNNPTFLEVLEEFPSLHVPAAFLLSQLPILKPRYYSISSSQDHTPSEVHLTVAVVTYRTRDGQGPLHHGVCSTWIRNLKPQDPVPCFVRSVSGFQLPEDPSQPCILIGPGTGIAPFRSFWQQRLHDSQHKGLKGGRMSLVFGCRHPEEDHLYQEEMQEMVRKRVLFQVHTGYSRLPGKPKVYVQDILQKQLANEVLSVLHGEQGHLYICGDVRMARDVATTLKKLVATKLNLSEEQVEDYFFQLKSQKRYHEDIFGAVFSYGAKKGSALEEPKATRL
As to the kind of experiment: Inhibition of iNOS-induced NO production in LPS-stimulated mouse BV2 cells at 10 uM after 24 hrs. In kind it is cell-based. Conditions: BV-2.

In test [2] the target is T2, Nitric oxide synthase, inducible (Mus musculus, UniProt P29477).
T2 sequence (P29477 whole entry): T1 sequence (whole entry)
As to the kind of experiment: Inhibition of iNOS-induced NO production in LPS-stimulated mouse BV2 cells after 24 hrs. It is filed as cell-based. Conditions: bv-2.

For orientation: inhibition means the share of the control response that was lost under treatment. The low end stands for a response near the control, the high end for a response far below the control. As a reminder, the IC50 is the point on the concentration scale where inhibition reaches its midpoint. Higher therefore signals weaker potency in that assay. On to `COc1c(O)cc2oc(-c3cccc(Br)c3)cc(=O)c2c1O`, for which the inhibition in test [1] was found to be 45.2%. Besides, in test [2], the IC50 came out at 10.8 µM.

The compound `COc1c(O)cc2oc(-c3ccc([N+](=O)[O-])cc3)cc(=O)c2c1O` displayed an inhibition in test [1] of 45.7%. The same compound came in with an IC50 in test [2] of 4.73 µM.

Consider `COc1c(O)cc(O)c2c(=O)cc(-c3ccccc3)oc12` [WOGONIN], for which, in test [1], the inhibition turned out to be 40%. The same compound had an IC50 in test [2] of 7.8 µM.

`COc1cc(-c2cc(=O)c3c(O)c(OC)c(O)cc3o2)ccc1O` came in with an inhibition in test [1] of 8.2%.

With `COc1c(O)cc2oc(-c3ccc(F)cc3F)cc(=O)c2c1O`, the inhibition in test [1] worked out at 10.6%.

As for `COc1c(O)cc2oc(-c3ccc(Cl)c(Cl)c3)cc(=O)c2c1O`, the inhibition in test [1] is 13.1%.

Compound `COc1c(O)cc2oc(-c3ccccc3)cc(=O)c2c1O` yielded an inhibition in test [1] of 26%.

In turn, `COc1c(O)cc2oc(-c3cccc(F)c3)cc(=O)c2c1O` registered an inhibition in test [1] of 39.9%. Moreover, the IC50 in test [2] stood at 11.4 µM.

For `COc1c(O)cc2oc(-c3ccccc3F)cc(=O)c2c1O`, the inhibition in test [1] came to 14.2%.

Compound `COc1c(O)cc2oc(-c3ccc(F)cc3)cc(=O)c2c1O` returned an inhibition in test [1] of 40.8%. The same compound had a concentration for half-maximal inhibition (IC50) in test [2] of 8.58 µM.
